{"source": "patent US11077036B2", "about": "“Lactam solubility” (Conopco, Inc., priority 2015, dated 2021)", "experiment": "Lactam solubility in water or water + ethyl lactate (48 hours agitation, filtration, HPLC quantification)", "type": "physicochemical", "conditions": "for Mean Lactam Level in Solution: 48 hours agitation", "description": "The following example uses, without limitation, 4-(4-chlorophenyl)-5-methylene-pyrrol-2-one and ethyl lactate.\nExcess solid lactam (˜3 mg) was placed in a Whatman® Mini Uniprep sample vial, fitted with a 0.45 μm nylon filter. Water or water+ethyl lactate (500 μL) was added the mixture shaken and tapped briefly to initially disperse the solid and the mixture then agitated for 48 hours using a plate shaker fitted with a vial holder (see image below). After 48 hours, the solid was removed from the system by pressing down the plunger with integral filter on the vial (see image below). This removes the solid and provides filtered solution within the inner chamber which is then ready for analysis.\nThe level of lactam dissolved in solution was quantified using HPLC analysis. Samples were analysed on an Agilent 1200® series HPLC fitted with a Thermo Hypersil® Gold C18 column (15×2.1×3 μm), isocratic elution with 60/40 methanol/water (+0.1% Formic Acid), 0.4 mL/min flow rate, using a DAD detector at 285 nm. 4-(4-chlorophenyl)-5-methylene-pyrrol-2-one has a retention time of ˜2.8 minutes.\nThe absolute level of lactam in solution is measured and reported as an increase in solubility of lactam relative to water alone.", "key": {"[1]": {"conditions": "0 % ethyl lactate in water (water alone)"}}, "data": [{"smiles": "C=C1NC(=O)C=C1c1ccc(Cl)cc1", "note": "[4-(4-chlorophenyl)-5-methylene-pyrrol-2-one]", "values": [{"measurement": "Solubility Increase vs water alone", "setting": "[1]", "result": 1.00}, {"measurement": "Mean Lactam Level in Solution", "setting": "[1]", "result": 5.7, "unit": "ppm"}, {"measurement": "Solubility Increase vs water alone", "setting": "0.5 % ethyl lactate in water", "result": 1.21}, {"measurement": "Mean Lactam Level in Solution", "setting": "0.5 % ethyl lactate in water", "result": 6.9, "unit": "ppm"}, {"measurement": "Solubility Increase vs water alone", "setting": "1 % ethyl lactate in water", "result": 1.21}, {"measurement": "Mean Lactam Level in Solution", "setting": "1 % ethyl lactate in water", "result": 6.9, "unit": "ppm"}, {"measurement": "Solubility Increase vs water alone", "setting": "2 % ethyl lactate in water", "result": 1.99}, {"measurement": "Mean Lactam Level in Solution", "setting": "2 % ethyl lactate in water", "result": 11.3, "unit": "ppm"}, {"measurement": "Solubility Increase vs water alone", "setting": "5 % ethyl lactate in water", "result": 4.63}, {"measurement": "Mean Lactam Level in Solution", "setting": "5 % ethyl lactate in water", "result": 26.4, "unit": "ppm"}, {"measurement": "Solubility Increase vs water alone", "setting": "10 % ethyl lactate in water", "result": 10.57}, {"measurement": "Mean Lactam Level in Solution", "setting": "10 % ethyl lactate in water", "result": 60.2, "unit": "ppm"}]}]}
